Test results taken from ChEMBL document CHEMBL1201862, “PubChem BioAssay data set” (2004).
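48-hour exposure; five concentrations; linearly interpolated endpoints. Here, GI50 denotes the concentration required for 50% inhibition of growth.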 Active and inactive are the calls of the source. Rule as the data show it: active = GI50 up to about 1.1 µM and inactive = higher.

Legend:
Experiment in all cases: NCI-60 cell line screen, 48 h
[1] = test system: KM12
[2] = test system: Hs-578T
[3] = test system: HT-29
[4] = test system: NCI-H460
[5] = test system: CAKI-1
[6] = test system: SNB-19
[7] = test system: SK-OV-3
[8] = test system: HOP-62
[9] = test system: OVCAR-5
[10] = test system: SR
[11] = test system: BT-549
[12] = test system: TK-10
[13] = test system: HCC 2998
[14] = test system: HL-60
[15] = test system: OVCAR-4
[16] = test system: DU-145
[17] = test system: RXF 393
[18] = test system: SF-295
[19] = test system: MDA-N
[20] = test system: LXFL 529

Compound	GI50 [1]	GI50 [2]	GI50 [3]	GI50 [4]	GI50 [5]	GI50 [6]	GI50 [7]	GI50 [8]	GI50 [9]	GI50 [10]	GI50 [11]	GI50 [12]	GI50 [13]	GI50 [14]	GI50 [15]	GI50 [16]	GI50 [17]	GI50 [18]	GI50 [19]	GI50 [20]
CN(C)c1ccc(/C=c2\c3cc([N+](=O)[O-])ccc3n3c2cc(-c2ccccc2)[n+]3C)cc1	1.04 µM (active)	1.62 µM (inactive)	1.52 µM (inactive)	3.13 µM (inactive)	7.66 µM (inactive)	0.925 µM (active)	3.92 µM (inactive)	2.04 µM (inactive)	3.63 µM (inactive)	0.29 µM (active)	1.23 µM (inactive)	2.64 µM (inactive)	2.28 µM (inactive)	0.292 µM (active)	2.17 µM (inactive)	1.95 µM (inactive)	1.06 µM (active)	2.32 µM (inactive)	0.437 µM (active)	
O=C(Nc1cccc2cnccc12)c1cc2c(cc1Cl)Sc1nccn1S2(=O)=O	4.66 µM (inactive)	20.1 µM (inactive)	14.6 µM (inactive)	7.82 µM (inactive)	25.8 µM (inactive)	17.9 µM (inactive)	40 µM (inactive)	14 µM (inactive)	25.2 µM (inactive)	3.28 µM (inactive)	10.4 µM (inactive)	24.4 µM (inactive)	15.7 µM (inactive)	4.62 µM (inactive)	15.2 µM (inactive)	13.6 µM (inactive)	8.2 µM (inactive)	15.4 µM (inactive)	7.01 µM (inactive)	
C/C(=N\NC(=S)NCCNC(=S)N/N=C(\C)c1ccccn1)c1ccccn1	3.87 µM (inactive)	> 73.1 µM (inactive)	2.07 µM (inactive)	1.61 µM (inactive)	3.42 µM (inactive)	9.46 µM (inactive)	4.7 µM (inactive)	1.83 µM (inactive)	3.98 µM (inactive)	0.514 µM (active)	2.36 µM (inactive)	1.04 µM (active)	7.28 µM (inactive)	0.789 µM (active)	2.9 µM (inactive)	2.32 µM (inactive)	3.16 µM (inactive)	3.45 µM (inactive)	4.51 µM (inactive)	
COc1ccc(Cn2c3c(cc(OC(C)=O)c2=O)Cc2ccccc2-3)cc1	11.4 µM (inactive)	20 µM (inactive)	10.7 µM (inactive)	3.97 µM (inactive)	10.7 µM (inactive)	12.9 µM (inactive)	20 µM (inactive)	14.9 µM (inactive)	18.7 µM (inactive)	2.14 µM (inactive)	11.2 µM (inactive)	13.1 µM (inactive)	3.33 µM (inactive)	5.64 µM (inactive)	9.95 µM (inactive)	12.2 µM (inactive)	8.36 µM (inactive)	17 µM (inactive)	12.1 µM (inactive)	
CC(C)=CC(=O)c1[nH]c2ccccc2c1CC(=O)NCCc1cn(C(c2ccccc2)(c2ccccc2)c2ccccc2)cn1	3.29 µM (inactive)	16.8 µM (inactive)	3.32 µM (inactive)	2.97 µM (inactive)	7.87 µM (inactive)	6.05 µM (inactive)	13.5 µM (inactive)	11.9 µM (inactive)	3.39 µM (inactive)	0.979 µM (active)	3.25 µM (inactive)	6.76 µM (inactive)	1.97 µM (inactive)	1.26 µM (inactive)	3.86 µM (inactive)	5.13 µM (inactive)	2.81 µM (inactive)	4.57 µM (inactive)	2.91 µM (inactive)	
NC1CC(=O)c2c(I)sc(I)c21 (centres undefined)	15.4 µM (inactive)	30.3 µM (inactive)	20.2 µM (inactive)	17.7 µM (inactive)	11.6 µM (inactive)	23.8 µM (inactive)	44.5 µM (inactive)	19.1 µM (inactive)	24.1 µM (inactive)	13.4 µM (inactive)	18.4 µM (inactive)	19 µM (inactive)	22 µM (inactive)	4.24 µM (inactive)	20.1 µM (inactive)	24 µM (inactive)	21.4 µM (inactive)	21 µM (inactive)	19.7 µM (inactive)	
O=[N+]([O-])C(=C/c1cccs1)/C(=C\c1cccs1)[N+](=O)[O-]	2.34 µM (inactive)	1.13 µM (inactive)	1.12 µM (inactive)	0.597 µM (active)	0.465 µM (active)	1.98 µM (inactive)	2.89 µM (inactive)	2.47 µM (inactive)	1.68 µM (inactive)	0.0719 µM (active)	1.35 µM (inactive)	0.962 µM (active)	1.21 µM (inactive)	0.0246 µM (active)	1.87 µM (inactive)	1.43 µM (inactive)	0.157 µM (active)	1.96 µM (inactive)	0.423 µM (active)	
Clc1ccc(-c2ccc(-c3nnc(CCc4nnc(-c5ccc(-c6ccc(Cl)cc6)o5)o4)o3)o2)cc1	> 100 µM (inactive)	14.8 µM (inactive)	> 100 µM (inactive)	> 100 µM (inactive)	> 100 µM (inactive)	> 100 µM (inactive)	> 45 µM (inactive)	> 50.8 µM (inactive)	> 100 µM (inactive)	0.276 µM (active)	> 100 µM (inactive)	40.9 µM (inactive)	> 100 µM (inactive)	4.81 µM (inactive)	> 100 µM (inactive)	> 100 µM (inactive)	25.8 µM (inactive)	31.5 µM (inactive)	> 100 µM (inactive)	
O=C(CC1(O)C(=O)Nc2c(Cl)ccc(Cl)c21)c1ccc(Cl)cc1 (centres undefined)	28.4 µM (inactive)		28.2 µM (inactive)	23.4 µM (inactive)	51.1 µM (inactive)	67.8 µM (inactive)	34.8 µM (inactive)	32 µM (inactive)	35.2 µM (inactive)			> 100 µM (inactive)	24.5 µM (inactive)		25.7 µM (inactive)		21.9 µM (inactive)	34.5 µM (inactive)		25.2 µM (inactive)
Clc1ccc(C2C3COc4ccccc4C3=NN2c2ccccc2)cc1 (centres undefined)	20.7 µM (inactive)	54.2 µM (inactive)	29.4 µM (inactive)	> 100 µM (inactive)	58.9 µM (inactive)	> 46.9 µM (inactive)	> 100 µM (inactive)	> 100 µM (inactive)	> 100 µM (inactive)	0.198 µM (active)	68.5 µM (inactive)	> 100 µM (inactive)	> 100 µM (inactive)	27.4 µM (inactive)	> 100 µM (inactive)	> 80.5 µM (inactive)	95.5 µM (inactive)	> 100 µM (inactive)	22.8 µM (inactive)	
CCCNCCCCC(NC(C)=O)C(=O)NCc1ccccc1 (centres undefined)	> 100 µM (inactive)		> 100 µM (inactive)	> 100 µM (inactive)	> 100 µM (inactive)	> 100 µM (inactive)	> 100 µM (inactive)	> 100 µM (inactive)	> 100 µM (inactive)			> 100 µM (inactive)	> 100 µM (inactive)		> 100 µM (inactive)		> 100 µM (inactive)	> 100 µM (inactive)		> 100 µM (inactive)
CCOP(=O)(OCC)/C(C#N)=C/c1[nH]cnc1C	> 100 µM (inactive)	> 100 µM (inactive)	> 100 µM (inactive)	> 100 µM (inactive)	> 100 µM (inactive)	> 100 µM (inactive)	> 100 µM (inactive)	> 100 µM (inactive)	> 100 µM (inactive)	> 100 µM (inactive)	> 100 µM (inactive)	> 100 µM (inactive)	> 100 µM (inactive)	> 100 µM (inactive)	> 100 µM (inactive)	> 100 µM (inactive)	> 100 µM (inactive)	> 100 µM (inactive)	> 100 µM (inactive)	
CC(=O)C(CN1CCCCC1)C(c1ccccc1)c1c(O)c2ccccc2oc1=O (centres undefined)	> 100 µM (inactive)	> 100 µM (inactive)	> 100 µM (inactive)	> 100 µM (inactive)	> 100 µM (inactive)	> 100 µM (inactive)	> 100 µM (inactive)	> 100 µM (inactive)	> 100 µM (inactive)	> 100 µM (inactive)	> 100 µM (inactive)	> 100 µM (inactive)	> 100 µM (inactive)	59.4 µM (inactive)	> 100 µM (inactive)	> 100 µM (inactive)	> 100 µM (inactive)	> 100 µM (inactive)	> 100 µM (inactive)	
O=C(N/C(=C\c1ccc(/C=C(\NC(=O)c2ccccc2)c2nc3ccccc3[nH]2)cc1)c1nc2ccccc2[nH]1)c1ccccc1			> 100 µM (inactive)	> 100 µM (inactive)	> 100 µM (inactive)	> 100 µM (inactive)	> 100 µM (inactive)	> 100 µM (inactive)	> 100 µM (inactive)			> 100 µM (inactive)	> 100 µM (inactive)		> 100 µM (inactive)		> 100 µM (inactive)	> 100 µM (inactive)		> 100 µM (inactive)
Cc1[nH]c2ccccc2c1/C=N/c1ccc(/N=C/c2c(C)[nH]c3ccccc23)cc1	16.4 µM (inactive)	47 µM (inactive)	34 µM (inactive)	41.2 µM (inactive)	38.7 µM (inactive)	61.9 µM (inactive)	49.8 µM (inactive)	25.1 µM (inactive)	> 100 µM (inactive)	19.2 µM (inactive)	47.9 µM (inactive)	90.4 µM (inactive)	36.9 µM (inactive)	14.7 µM (inactive)	26.4 µM (inactive)	37.4 µM (inactive)	53 µM (inactive)	40.6 µM (inactive)	30.5 µM (inactive)	
